System: SARS-Cov-2 virus particles
Assay: RT-qPCR screening of surfactant treatment solutions for disruption of SARS-CoV-2 virus particles
Settings: for effect of heating the virus-surfactant mixture on Cq values (compatibility with RT-qPCR): then 92° C. for 5 minutes
[1] = Example 1, 2X concentration per surfactant, 30 minutes ambient, without heating
[2] = Example 2, surfactant 0.02-0.08%, absence of a heating step

## C[C@H](CCC(=O)NCCC[N+](C)(C)CC(O)CS(=O)(=O)[O-])[C@H]1CC[C@H]2[C@@H]3[C@H](O)C[C@@H]4C[C@H](O)CC[C@]4(C)[C@H]3C[C@H](O)[C@]12C (stereo partly drawn) [CHAPSO, 3-[(3-cholamidopropyl)dimethylammonio]-2-hydroxy-1-propanesulfonate]
[1]
  disruption of virus particles (Cq vs virus in Tris-EDTA buffer): ineffective at disrupting the virus particles
Example 1, 30 minutes ambient
  effect of heating the virus-surfactant mixture on Cq values (compatibility with RT-qPCR): compatible with RT-qPCR

## CCCCCCCCCC[N+](C)(C)CCCCCCCCCC.[Br-] [DDAB, Didecyldimethylammonium bromide]
[1]
  disruption of virus particles (Cq vs virus in Tris-EDTA buffer): effective at disrupting the virus particles
Example 1, 30 minutes ambient
  effect of heating the virus-surfactant mixture on Cq values (compatibility with RT-qPCR): higher average Cq values

## CCCCCCCCCC[N+](C)(C)C.[Br-] [DeTAB]
Example 1, 30 minutes ambient
  effect of heating the virus-surfactant mixture on Cq values (compatibility with RT-qPCR): compatible with RT-qPCR

## CCCCCCCCCCCC[N+](C)(C)C.[Br-] [DoTAB]
[1]
  disruption of virus particles (Cq vs virus in Tris-EDTA buffer): ineffective at disrupting the virus particles

## CCCCCCCCCCCC[N+](C)(C)CC.[Br-] [EDMAB, Dodecylethyldimethylammonium bromide]
[1]
  disruption of virus particles (Cq vs virus in Tris-EDTA buffer): ineffective at disrupting the virus particles
Example 1, 30 minutes ambient
  effect of heating the virus-surfactant mixture on Cq values (compatibility with RT-qPCR): compatible with RT-qPCR

## CCCCCCCCCCCC[N+](C)(C)[O-] [LDAO, N,N Dimethydodecylamine-N-oxide]
[1]
  disruption of virus particles (Cq vs virus in Tris-EDTA buffer): effective at disrupting the virus particles
[2]
  disruption of virus particles (Cq vs virus in Tris-EDTA buffer): effective at disrupting the virus particles
Example 3, 0.02% LDAO solution (2X), 0 to 60 minutes room temperature, no heating
  virus disruption vs incubation time: rapidly disrupted the virus particles

## O=S(=O)([O-])CCC[n+]1ccccc1 [NDSB201]
[1]
  disruption of virus particles (Cq vs virus in Tris-EDTA buffer): ineffective at disrupting the virus particles

## CCCCCCCCCCCC(=O)OCCOCCOCCOCCOCCOCCOCCOCCOCCOCCOCCOCCOCCOCCOCCOCCOCCOCCOCCOCCOCC(OCCOCCOCCOCCOCCOCCOCCOCCOCCOCCOCCOCCOCCOCCOCCOCCOCCOCCOCCOCCO)C1OCC(OCCOCCOCCOCCOCCOCCOCCOCCOCCOCCOCCOCCOCCOCCOCCOCCOCCOCCOCCOCCO)C1OCCOCCOCCOCCOCCOCCOCCOCCOCCOCCOCCOCCOCCOCCOCCOCCOCCOCCOCCOCCO (stereo not drawn) [Tween 20, polysorbate 20]
[1]
  disruption of virus particles (Cq vs virus in Tris-EDTA buffer): effective at disrupting the virus particles

## CCCCCCCC/C=C\CCCCCCCC(=O)OCCOCC(OCCO)C1OCC(OCCO)C1OCCO (stereo not drawn) [Tween 80]
[1]
  disruption of virus particles (Cq vs virus in Tris-EDTA buffer): ineffective at disrupting the virus particles
Example 1, 30 minutes ambient
  effect of heating the virus-surfactant mixture on Cq values (compatibility with RT-qPCR): compatible with RT-qPCR

## CCCCCCCCCCCCCC[N+](C)(C)CCCS(=O)(=O)[O-] [Zwittergent 3-14, n-Tetradecyl-N,N-dimethyl-3-ammonio-1-propanesulfonate]
[1]
  disruption of virus particles (Cq vs virus in Tris-EDTA buffer): effective at disrupting the virus particles
[2]
  disruption of virus particles (Cq vs virus in Tris-EDTA buffer): effective at disrupting the virus particles

## Benzalkonium Chloride [BZK]
[1]
  disruption of virus particles (Cq vs virus in Tris-EDTA buffer): effective at disrupting the virus particles
Example 2, surfactant 0.08%
  effect on downstream RT-qPCR: inhibitory to downstream RT-qPCR

## N-(Alkyl C10-C16)-N,N-dimethylglycine betaine [Empigen BB]
[1]
  disruption of virus particles (Cq vs virus in Tris-EDTA buffer): effective at disrupting the virus particles

## nonyl phenoxypolyethoxylethanol [NP-40 alternative]
[1]
  disruption of virus particles (Cq vs virus in Tris-EDTA buffer): effective at disrupting the virus particles
